Assay results from patent publication US11203578B2, “Oxadiazole derivatives for the treatment of genetic diseases due to nonsense mutations” (UNIVERSITA' DEGLI STUDI DIPALERMO, priority 2017, dated 2021).
Where “and” joins values, the source holds several entries; their conditions need not be identical. Equal values may be shown once. Read-outs that look alike come from different tables or passages of the source.

How the values were obtained:
[1] = test system: pFLuc-opal (UGA stop mutation); assay: FLuc cell-based readthrough assay in HeLa FLuc-opal transfected cells; parameters: key to Pharm Set: Active: as active, compounds with FLUC values >4.52 (ATALUREN FLUC value); Inactive: as inactives, compounds with FLUC values ≤4.00; Moderate: as moderate actives, compounds with 4.39≤FLUC values ≤4,51; conditions: for Pharm Set: class of activity related to the FLUC values
Excerpt: The results disclosed in (Pibiri I., Lentini L., Tutone M., Melfi R., Pace A., Di Leonardo A. Exploring the readthrough of nonsense mutations by non-acidic Ataluren analogues selected by ligand-based virtual screening. Eur. J. Med. Chem. 122 (2016) 429-435) have been refined with 3D-QSAR (quantitative structure-activity relationships) pharmacophore modelling. The endpoint to build QSAR models was the luciferase activity known data. These values were converted to pFLUC (−log FLUC) values. In order to find the common pharmacophore hypothesis, we divided the 24 compounds in three different classes of activity related to the FLUC values (Pharm set). We considered as active, compounds with FLUC values >4.52 (ATALUREN FLUC value), as inactives, compounds with FLUC values ≤4.00, and as moderate actives, compounds with 4.39≤FLUC values ≤4,51. Dataset was randomly split into a training set (19 compounds) for models generation, and test set (5 compounds) for the validation of developed models, as reported in Table 1.
To ascertain the effectiveness of the newly synthesized ataluren analogues in promoting the readthrough of premature termination codons was used the FLuc cell-based assay. To this aim HeLa cells were transfected transiently with the plasmids pFLuc-wild type (control) and pFLuc-opal (UGA stop mutation) (NIH Chemical Genomics Center, National Institutes of Health, Bethesda, USA). FLuc gene expression was then measured by luminescence.

[2] = test system: pFLuc-opal (UGA stop mutation); conditions: luciferase activity known data, converted to pFLUC (−log FLUC); literature [1], [2]; cited from earlier work
[3] = test system: HeLa cells; assay: Cytotoxic effects and impact on cell proliferation in HeLa cells; format: cell-based; conditions: 12 μM
Method: HeLa cells were used to determine the possible cytotoxic effects of our compounds and the impact on cell proliferation. In FIG. 7 are reported the percentages of dead cells and proliferating cells after treatment with 12 μM compounds and 12 μM ATALUREN.

COC(=O)c1cccc(-c2noc(-c3ccc(F)cc3)n2)c1 [Compound 6-NV1153]
Pharm Set [1]: Inactive
RLU values Exp. [2]: 4.125

COC(=O)c1cccc(-c2noc(-c3c(F)cccc3F)n2)c1 [Compound 11-NV1174, Methyl 3-(5-(2,6-difluorophenyl)-1,2,4-oxadiazol-3-yl)ben-zoate)]
Pharm Set [1]: Moderate (as moderate actives, compounds with 4.39≤FLUC values ≤4,51)
RLU values Exp. [2]: 4.414

N#Cc1cccc(-c2nc(-c3ccccn3)no2)c1 [Compound 15-NV1859, 3-(2′-pyridyl)-5-(3′-cyanophenyl)-1,2,4-oxadiazole]
Pharm Set [1]: Moderate (as moderate actives, compounds with 4.39≤FLUC values ≤4,51)
RLU values Exp. [2]: 4.363

O=C(O)c1cccc(-c2noc(-c3ccccc3F)n2)c1 [ATALUREN, 3-(5-(2-Fluorophenyl)-1,2,4-oxadiazol-3-yl)benzoic acid]
Pharm Set [1]: Active
dead cells ([3]; 24 h): 4%
dead cells ([3]; 72 h): 7%
RLU values Exp. [2]: 4.52 and 4.528

COC(=O)c1cccc(-c2noc(-c3cccc(F)c3)n2)c1 [Compound 2-NV1127]
Pharm Set [1]: Moderate (as moderate actives, compounds with 4.39≤FLUC values ≤4,51)
RLU values Exp. [2]: 4.477

Cc1cccc(-c2nc(-c3ccccn3)no2)c1 [Compound 21-NV1898, 3-(2-pyridyl)-5-(3′-toluyl)-1,2,4-oxadiazole]
Pharm Set [1]: Active
RLU values Exp. [2]: 4.551

Cc1cccc(-c2noc(-c3cccc(C)c3)n2)c1 [Compound 20-NV1905, 3-(3-toluyl), 5-(3-toluyl)-1,2,4-oxadiazole]
Pharm Set [1]: Inactive
RLU values Exp. ([1]; luciferase activity converted to pFLUC, [3] unpublished data): 4.181

Cc1cccc(-c2nc(-c3cccnc3)no2)c1 [Compound 17-NV1879, 3-(3′-pyridyl)-5-(3′-toluyl)-1,2,4-oxadiazole]
Pharm Set [1]: Moderate (as moderate actives, compounds with 4.39≤FLUC values ≤4,51)
RLU values Exp. [2]: 4.411

COC(=O)c1cccc(-c2noc(-c3cc(F)c(F)cc3F)n2)c1 [Compound 4-NV1128, Methyl 3-(5-(2,4,5-trifluorophenyl)-1,2,4-oxadiazol-3-yl) benzoate)]
Pharm Set [1]: Moderate (as moderate actives, compounds with 4.39≤FLUC values ≤4,51)
RLU values Exp. [2]: 4.397

COC(=O)c1cccc(-c2noc(-c3c(F)c(F)c(F)c(F)c3F)n2)c1 [Compound 13-NV1951]
Pharm Set [1]: Inactive
RLU values Exp. [2]: 4.008

Cc1cccc(-c2nc(-c3ccccc3)no2)c1 [Compound 18-NV1883, 3-(3′-phenyl)-5-(3′-toluyl)-1,2,4-oxadiazole]
Pharm Set [1]: Moderate (as moderate actives, compounds with 4.39≤FLUC values ≤4,51)
RLU values Exp. [2]: 4.428

COC(=O)c1cccc(-c2noc(-c3ccccc3F)n2)c1 [Compound 1-NV1103]
Pharm Set [1]: Active
RLU values Exp. [2]: 4.532

COC(=O)c1cccc(-c2noc(-c3ccc(F)cc3F)n2)c1 [Compound 10-NV1171, Methyl 3-(5-(2,4-difluorophenyl)-1,2,4-oxadiazol-3-yl)ben-zoate)]
Pharm Set [1]: Moderate (as moderate actives, compounds with 4.39≤FLUC values ≤4,51)
RLU values Exp. [2]: 4.439

O=C(O)c1cccc(-c2noc(-c3c(F)c(F)c(F)c(F)c3F)n2)c1 [Compound 14-NV1954, 3-(5-(Perfluorophenyl)-1,2,4-oxadiazol-3-yl)benzoic acid]
Pharm Set [1]: Inactive
RLU values Exp. [2]: 4.171

Cc1cccc(-c2noc(-c3ccccc3C)n2)c1 [Compound 19-NV1894, 3-(3-toluyl), 5-(2-toluyl)-1,2,4-oxadiazole]
Pharm Set [1]: Moderate (as moderate actives, compounds with 4.39≤FLUC values ≤4,51)
RLU values Exp. [2]: 4.250

Cc1cccc(-c2nc(-c3ccncc3)no2)c1 [Compound 16-NV1861, 3-(4′-pyridyl)-5-(3′-toluyl)-1,2,4-oxadiazole]
Pharm Set [1]: Moderate (as moderate actives, compounds with 4.39≤FLUC values ≤4,51)
RLU values Exp. [2]: 4.250

O=C(O)c1cccc(-c2noc(-c3cc(F)c(F)cc3F)n2)c1 [Compound 5-NV1173, 3-(5-(2,4,5-Trifluorophenyl)-1,2,4-oxadiazol-3-yl)benzoic acid]
Pharm Set [1]: Active
RLU values Exp. [2]: 4.788

O=C(O)c1cccc(-c2noc(-c3cccc(F)c3)n2)c1 [Compound 3-NV1133, 3-(5-(3-Fluorophenyl)-1,2,4-oxadiazol-3-yl)benzoic acid]
Pharm Set [1]: Active
RLU values Exp. [2]: 4.628

COC(=O)c1cccc(-c2noc(-c3ccc(F)c(F)c3)n2)c1 [Compound 9-NV1175, Methyl 3-(5-(3,4-difluorophenyl)-1,2,4-oxadiazol-3-yl)ben-zoate)]
Pharm Set [1]: Moderate (as moderate actives, compounds with 4.39≤FLUC values ≤4,51)
RLU values Exp. [2]: 4.269

COc1cccc(C(=O)c2nc(-c3ccccn3)no2)c1 [Compound 23-NV1940, 3-(2-pyridyl)-5-(3′-anisoyl)-1,2,4-oxadiazole]
Pharm Set [1]: Inactive
RLU values Exp. [2]: 4.000

COC(=O)c1cccc(-c2noc(-c3cccc(F)c3F)n2)c1 [Compound 8-NV1170, Methyl 3-(5-(2,3-difluorophenyl)-1,2,4-oxadiazol-3-yl)ben zoate)]
Pharm Set [1]: Moderate (as moderate actives, compounds with 4.39≤FLUC values ≤4,51)
RLU values Exp. [2]: 4.311

COc1cccc(C(=O)c2nc(-c3ccncc3)no2)c1 [Compound 22-NV1919, 3-(4′-pyridyl)-5-(3′-anisoyl)-1,2,4-oxadiazole]
Pharm Set [1]: Moderate (as moderate actives, compounds with 4.39≤FLUC values ≤4,51)
RLU values Exp. [2]: 4.253

Cc1cccc(-c2noc(-c3ccccc3F)n2)c1 [Compound 12-NV1798, 3-Toluyl, 5-(2-fluorophenyl)-1,2,4-oxadiazole]
Pharm Set [1]: Inactive
RLU values Exp. [2]: 4.178

COC(=O)c1cccc(-c2noc(-c3cccc(F)c3F)n2)c1 [Compound 7-NV1149]
Pharm Set [1]: Inactive
RLU values Exp. [2]: 4.103
